Laboratory results from the supplement of paper PMC4862054.
Where “and” joins values, the source holds several entries; their conditions need not be identical. Identical values can stand only once.

Key:
DU-4475 [1] = assay: normalised viability (% of control), CellTiter-Blue; higher = more viable cells (about 100 = DMSO control); conditions: incubation time: 72 h
Procedure: (§1)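 DSRT, CellTiter-Blue viability, 72 h incubation. Signal is normalised to DMSO and benzethonium chloride controls. Value is the normalised response at dose 9.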

CAL-51 [2] = assay: as above; conditions: incubation time: 72 h
Procedure: as §1

CAL-148 [3] = assay: as above; conditions: incubation time: 72 h
Procedure: as §1

CAL-85-1 [4] = assay: as above; conditions: incubation time: 72 h
Procedure: as §1

DU-4475 [5] = assay: as above; conditions: incubation time: 72 h; remark: listed apart in the source
Procedure: (§2)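 DSRT, CellTiter-Blue viability, 72 h incubation. Signal is normalised to DMSO and benzethonium chloride controls. Value is the normalised response at dose 6.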

MDA-MB-453 [6] = assay: as above; conditions: incubation time: 72 h
Procedure: as §2

CAL-51 [7] = assay: as above; conditions: incubation time: 72 h; remark: listed apart in the source
Procedure: as §2

CAL-148 [8] = assay: as above; conditions: incubation time: 72 h; remark: listed apart in the source
Procedure: as §2

HDQ-P1 [9] = assay: as above; conditions: incubation time: 72 h
Procedure: as §2

CAL-85-1 [10] = assay: as above; conditions: incubation time: 72 h; remark: listed apart in the source
Procedure: as §2

CAL-120 = assay: normalised viability (% of control), CellTiter-Blue; higher = more viable cells (about 100 = DMSO control); conditions: incubation time: 72 h
Method in brief: (§3)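 Normalised viability is given for a single listed concentration of the series. In 384-well plates, breast cancer cell lines were incubated 72 h with compound, then read with CellTiter-Blue (2 h, 37 °C) at 560/590 nm. Per-plate scaling set vehicle to 100 and a positive kill control to 0, with Z'-factor quality control.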

DU-4475 [11] = assay: as above; conditions: incubation time: 72 h; remark: listed apart in the source
Method in brief: as §3

HCC1937 = assay: as above; conditions: incubation time: 72 h
Method in brief: as §3

MDA-MB-453 [12] = assay: as above; conditions: incubation time: 72 h; remark: listed apart in the source
Method in brief: as §3

BT-549 = assay: as above; conditions: incubation time: 72 h
Method in brief: as §3

SK-BR-3 = assay: as above; conditions: incubation time: 72 h
Method in brief: as §3

HCC1599 = assay: as above; conditions: incubation time: 72 h
Method in brief: as §3

MFM-223 [13] = assay: as above; conditions: incubation time: 72 h
Method in brief: as §3

CAL-51 [14] = assay: as above; conditions: incubation time: 72 h; remark: listed apart in the source
Method in brief: as §3

MDA-MB-231 = assay: as above; conditions: incubation time: 72 h
Method in brief: as §3

HCC1143 = assay: as above; conditions: incubation time: 72 h
Method in brief: as §3

CAL-148 [15] = assay: as above; conditions: incubation time: 72 h; remark: listed apart in the source
Method in brief: as §3

Hs578T = assay: as above; conditions: incubation time: 72 h
Method in brief: as §3

BT-474 = assay: as above; conditions: incubation time: 72 h
Method in brief: as §3

MDA-MB-468 = assay: as above; conditions: incubation time: 72 h
Method in brief: as §3

MDA-MB-436 = assay: as above; conditions: incubation time: 72 h
Method in brief: as §3

CAL-85-1 [16] = assay: as above; conditions: incubation time: 72 h; remark: listed apart in the source
Method in brief: as §3

MFM-223 [17] = assay: normalised viability (% of control), CellTiter-Blue; higher = more viable cells (100 = DMSO, 0 = benzethonium chloride kill control); conditions: incubation time: 72 h
Procedure: (§4)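 DSRT, CellTiter-Blue viability, 72 h incubation. Signal is normalised to DMSO and benzethonium chloride controls. Value is the normalised response at dose 1.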

CAL-51 [18] = assay: as above; conditions: incubation time: 72 h
Procedure: as §4

CAL-148 [19] = assay: as above; conditions: incubation time: 72 h
Procedure: as §4

HDQ-P1 [20] = assay: normalised viability (% of control), CellTiter-Blue; higher = more viable cells (about 100 = DMSO control); conditions: 1000 nM; incubation time: 72 h
Procedure: as §1

HDQ-P1 [21] = assay: normalised viability (% of control), CellTiter-Blue; higher = more viable cells (about 100 = DMSO control); conditions: 10 nM; incubation time: 72 h
Method in brief: as §3

SMILES: Cc1ccc(NC(=O)c2ccc(CN3CCN(C)CC3)cc2)cc1Nc1nccc(-c2cccnc2)n1 [Imatinib]
- normalised viability (DU-4475 [1]; 10000 nM): 121% and 110%
- normalised viability (CAL-51 [2]; 10000 nM): 110% and 93.9%
- normalised viability (CAL-148 [3]; 10000 nM): 80.5% and 92.7%
- normalised viability (CAL-85-1 [4]; 10000 nM): 87.7% and 85.9%
- normalised viability (DU-4475 [5]; 300 nM): 97.8% and 89.4%
- normalised viability (MDA-MB-453 [6]; 300 nM): 86.5% and 88.3%
- normalised viability (CAL-51 [7]; 300 nM): 106% and 102%
- normalised viability (CAL-148 [8]; 300 nM): 83.5% and 104%
- normalised viability (HDQ-P1 [9]; 300 nM): 74.9% and 72.5%
- normalised viability (CAL-85-1 [10]; 300 nM): 101% and 94.4%
- normalised viability (CAL-120; 10000 nM): 114%
- normalised viability (DU-4475 [11]; 100 nM): 89.4% and 111%
- normalised viability (HCC1937; 10000 nM): 88%
- normalised viability (MDA-MB-453 [12]; 100 nM): 104% and 99.3%
- normalised viability (BT-549; 10000 nM): 93% and 76.6%
- normalised viability (SK-BR-3; 10000 nM): 80.8% and 91.9%
- normalised viability (HCC1599; 10000 nM): 97.8% and 103%
- normalised viability (MFM-223 [13]; 10000 nM): 105% and 98%
- normalised viability (CAL-51 [14]; 100 nM): 102% and 98.4%
- normalised viability (MDA-MB-231; 10000 nM): 107% and 104%
- normalised viability (HCC1143; 10000 nM): 86.7% and 88.8%
- normalised viability (CAL-148 [15]; 100 nM): 85.4% and 91.8%
- normalised viability (Hs578T; 10000 nM): 95.3% and 109%
- normalised viability (BT-474; 10000 nM): 104% and 96.8%
- normalised viability (MDA-MB-468; 10000 nM): 103% and 99.3%
- normalised viability (MDA-MB-436; 10000 nM): 97.6% and 106%
- normalised viability (CAL-85-1 [16]; 100 nM): 90.9%
- normalised viability (MFM-223 [17]; 1 nM): 93.1% and 97.1%
- normalised viability (CAL-51 [18]; 1 nM): 99.8% and 100%
- normalised viability (CAL-148 [19]; 1 nM): 86.2% and 97.6%

SMILES: Cn1c(=O)n(-c2ccc(C(C)(C)C#N)cc2)c2c3cc(-c4cnc5ccccc5c4)ccc3ncc21 [NVP-BEZ235]
- normalised viability (DU-4475 [1]; 1000 nM): 5.52%
- normalised viability (CAL-51 [2]; 1000 nM): 8.61%
- normalised viability (CAL-148 [3]; 1000 nM): 0.2%
- normalised viability (HDQ-P1 [20]): 34%
- normalised viability (CAL-85-1 [4]; 1000 nM): 27.7%
- normalised viability (DU-4475 [5]; 30 nM): 65.2%
- normalised viability (MDA-MB-453 [6]; 30 nM): 21.9%
- normalised viability (CAL-51 [7]; 30 nM): 29.5%
- normalised viability (CAL-148 [8]; 30 nM): 32.4%
- normalised viability (HDQ-P1 [9]; 30 nM): 39.8%
- normalised viability (CAL-85-1 [10]; 30 nM): 47.8%
- normalised viability (CAL-120; 1000 nM): 14.4%
- normalised viability (DU-4475 [11]; 10 nM): 107%
- normalised viability (HCC1937; 1000 nM): 45.5%
- normalised viability (MDA-MB-453 [12]; 10 nM): 49.9%
- normalised viability (BT-549; 1000 nM): 18.2%
- normalised viability (SK-BR-3; 1000 nM): 15.6%
- normalised viability (HCC1599; 1000 nM): 55.2%
- normalised viability (MFM-223 [13]; 1000 nM): 24.1%
- normalised viability (CAL-51 [14]; 10 nM): 54.6%
- normalised viability (MDA-MB-231; 1000 nM): 27.1%
- normalised viability (HCC1143; 1000 nM): 30.1%
- normalised viability (CAL-148 [15]; 10 nM): 73.5%
- normalised viability (Hs578T; 1000 nM): 24.7%
- normalised viability (BT-474; 1000 nM): 41%
- normalised viability (HDQ-P1 [21]): 69%
- normalised viability (MDA-MB-468; 1000 nM): 28.1%
- normalised viability (MDA-MB-436; 1000 nM): 63.2%
- normalised viability (CAL-85-1 [16]; 10 nM): 68.6%
- normalised viability (MFM-223 [17]; 0.1 nM): 99.3%
- normalised viability (CAL-51 [18]; 0.1 nM): 102%
- normalised viability (CAL-148 [19]; 0.1 nM): 114%

SMILES: C/C(=C\c1csc(C)n1)[C@@H]1C[C@@H]2O[C@]2(C)CCC[C@H](C)[C@H](O)[C@@H](C)C(=O)C(C)(C)[C@@H](O)CC(=O)O1 [Patupilone]
- normalised viability (DU-4475 [1]; 1000 nM): 2.77%
- normalised viability (CAL-51 [2]; 1000 nM): 13.6%
- normalised viability (CAL-148 [3]; 1000 nM): 19.9%
- normalised viability (HDQ-P1 [20]): 55.1%
- normalised viability (CAL-85-1 [4]; 1000 nM): 30.3%
- normalised viability (DU-4475 [5]; 30 nM): 18.5%
- normalised viability (MDA-MB-453 [6]; 30 nM): 24.8%
- normalised viability (CAL-51 [7]; 30 nM): 28.8%
- normalised viability (CAL-148 [8]; 30 nM): 19.6%
- normalised viability (HDQ-P1 [9]; 30 nM): 48.4%
- normalised viability (CAL-85-1 [10]; 30 nM): 27.2%
- normalised viability (CAL-120; 1000 nM): 23.4%
- normalised viability (DU-4475 [11]; 10 nM): 57.5%
- normalised viability (HCC1937; 1000 nM): 20.4%
- normalised viability (MDA-MB-453 [12]; 10 nM): 47.3%
- normalised viability (BT-549; 1000 nM): 22.1%
- normalised viability (SK-BR-3; 1000 nM): 15.2%
- normalised viability (HCC1599; 1000 nM): 79.3%
- normalised viability (MFM-223 [13]; 1000 nM): 45.7%
- normalised viability (CAL-51 [14]; 10 nM): 59.1%
- normalised viability (MDA-MB-231; 1000 nM): 30.7%
- normalised viability (HCC1143; 1000 nM): 32%
- normalised viability (CAL-148 [15]; 10 nM): 32.3%
- normalised viability (Hs578T; 1000 nM): 13.2%
- normalised viability (BT-474; 1000 nM): 25.4%
- normalised viability (HDQ-P1 [21]): 92.5%
- normalised viability (MDA-MB-468; 1000 nM): 54.8%
- normalised viability (MDA-MB-436; 1000 nM): 40.1%
- normalised viability (CAL-85-1 [16]; 10 nM): 33.9%
- normalised viability (MFM-223 [17]; 0.1 nM): 104%
- normalised viability (CAL-51 [18]; 0.1 nM): 102%
- normalised viability (CAL-148 [19]; 0.1 nM): 105%
